Reference: ChEMBL document CHEMBL1142790, “Carbonic anhydrase inhibitors: inhibition of the transmembrane isozyme XIV with sulfonamides” (Bioorg Med Chem Lett, 2005)

These compounds were tested against Carbonic anhydrase 14 (Homo sapiens, UniProt Q9ULX7).
Chain of Carbonic anhydrase 14 (Q9ULX7 whole entry): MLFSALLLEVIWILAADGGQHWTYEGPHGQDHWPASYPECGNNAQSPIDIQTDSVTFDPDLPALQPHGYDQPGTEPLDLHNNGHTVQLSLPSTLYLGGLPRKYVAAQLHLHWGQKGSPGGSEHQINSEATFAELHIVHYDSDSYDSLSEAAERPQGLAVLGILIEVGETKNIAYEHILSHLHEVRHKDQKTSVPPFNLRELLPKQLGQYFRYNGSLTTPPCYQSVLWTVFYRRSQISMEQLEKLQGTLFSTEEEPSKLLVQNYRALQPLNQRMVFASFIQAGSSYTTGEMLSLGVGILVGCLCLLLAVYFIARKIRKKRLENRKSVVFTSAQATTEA

SMILES | Ki [µM]
Nc1nnc(S(N)(=O)=O)s1 | 0.28
Nc1ccc(S(=O)(=O)Nc2nnc(S(N)(=O)=O)s2)cc1 | 0.013
Nc1nccc(Nc2ccc(S(N)(=O)=O)cc2)n1 | 0.089
Nc1ccccc1S(N)(=O)=O | 6.5
Nc1ccc(S(N)(=O)=O)cc1Br | 0.015
Cn1nc(S(N)(=O)=O)sc1=N | 0.245
NS(=O)(=O)c1ccc(CCO)cc1 | 3.26
Nc1cccc(S(N)(=O)=O)c1 | 4.8
Nc1ccc(S(N)(=O)=O)cc1F | 0.18
NS(=O)(=O)c1ccc(CO)cc1 | 3.84
Nc1ccc(S(N)(=O)=O)cc1Cl | 0.021
Nc1ccc(S(=O)(=O)NCCc2ccc(S(N)(=O)=O)cc2)cc1 | 0.076
NNc1ccc(S(N)(=O)=O)cc1 | 1.45
CCN[C@H]1CN(CCCOC)S(=O)(=O)c2sc(S(N)(=O)=O)cc21 [BRINZOLAMIDE] | 0.024
NS(=O)(=O)c1ccc(C(=O)O)cc1 [CARZENIDE] | 0.78
NCc1ccc(S(N)(=O)=O)cc1 [MAFENIDE] | 3.2
Nc1ccc(S(N)(=O)=O)cc1 [SULFANILAMIDE] | 5.4

Each compound was assayed against Carbonic anhydrase 12 (Homo sapiens, UniProt O43570).
Chain of Carbonic anhydrase 12 (O43570 whole entry): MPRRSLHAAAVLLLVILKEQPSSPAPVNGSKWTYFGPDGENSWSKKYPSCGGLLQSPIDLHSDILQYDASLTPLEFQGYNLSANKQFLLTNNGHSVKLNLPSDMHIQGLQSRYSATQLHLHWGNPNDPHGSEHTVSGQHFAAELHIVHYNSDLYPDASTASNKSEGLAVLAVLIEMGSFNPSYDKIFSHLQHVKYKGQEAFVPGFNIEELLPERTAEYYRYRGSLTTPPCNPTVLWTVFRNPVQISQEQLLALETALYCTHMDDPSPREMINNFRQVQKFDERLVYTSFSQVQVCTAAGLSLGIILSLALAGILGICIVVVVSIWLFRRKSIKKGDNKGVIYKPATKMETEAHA

SMILES | Ki [µM]
Nc1ccccc1S(N)(=O)=O | 0.085
Nc1cccc(S(N)(=O)=O)c1 | 0.125
NNc1ccc(S(N)(=O)=O)cc1 | 0.011
